Reference: patent US20120283334A1, “Treatment of Viral Infections” (Biocopea, Ltd., priority 2009, published 2012)
Entries after “also recorded” stand apart in the source; their conditions may differ. Like-named read-outs stand apart in the source and are kept apart here.

Legend:
TNF-α = TNF-α levels in PBMC under LPS stimulation (ELISA); format: cell-based, human; conditions: for Percentage TNF-α levels compared to 100% untreated cells under LPS stimulation: PBMC; for concentration of TNF-α in LPS stimulated cells: text summary of Table 2, concentration not stated
Experimental: (§1) 1) Isolation, Culture and Treatment of Peripheral Blood Mononuclear Cells (PBMC) Blood was collected in 6 ml vacutainers (green cap). Blood was processed within 2 h of collection. Materials used: Non-coagulated blood; FCS; RPMI-1640 media supplemented with L-Gln and P/S; PBS; sterile tips and pipettes; Sterile 15 ml Falcon; Sterile V-bottom 96-well plates with lids; Neubauer chamber; Trypan Blue solution; 70% IPA solution; Accuspin-Histopaque tubes (Sigma, A7054) Procedure: • 1. Dilute samples 1:1 in sterile PBS; • 2. Add 30 ml of diluted blood into an Accuspin-Histopaque tube (Sigma, A7054); • 3. Centrifuge at 800 rcf 15min at room temperature (RT); • 4. After centrifugation, the red blood cells will remain at the bottom below the frit. The monocytes (PBMC) will be present on a layer above the frit, with the plasma on top; • 5. Collect the PBMC layer with a pipette into a fresh 15 ml Falcon tube and top up to 15 ml of PBS; • 6. Centrifuge at 250 rcf 10 min at RT; • 7. Discard the supernatant, flick the pellet and add another 10 ml of PBS; • 8. Centrifuge at 250 rcf 10 min at RT; • 9. Repeat steps 7 and 8; • 10. […] Count cells and make a 4×10^6 cell/ml suspension in complete medium. Add 100 μl of cell suspension per well in a V-bottom 96-well plate. Then add 50 μl of stimulant or vehicle in complete media, and 50 μl of drug or vehicle in complete media. Incubate the cells for 24 h at 37° C. 5% CO2; • 12. After incubation, take 60 μl of cell supernatant to measure IFNγ and TNFα by ELISA (OptEIA human IFNγ, cat No. 555142 and human TNF, Cat No. 555212) following manufacturer's instructions (BD Biosciences); The two mitogens that the inventors used to stimulate lymphocytes, and therefore assess immune function, were lipopolysaccharide (LPS) and Concanavalin A (Con A). LPS acts on B cells but not T cells, whereas Con A acts on T cells but not B cells. The effects of two embodiments of the compound represented by formula I, i.e. dobutamine (referred to in the tables as BC1021) and ritodrine (BC1023), on the levels of IFN-γ and TNF-α were investigated in LPS and Con A stimulated assays. Peripheral Blood Mononuclear Cells (PMBC) were independently administered with each mitogen, LPS or Con A, and then treated with either dobutamine or ritodrine. Control experiments were conducted in which no LPS or Con A was added, such that any effect on the levels of IFN-γ and TNF-α could be directly attributed to the presence of the test compound, dobutamine or ritodrine. The values in the Tables are expressed as the percentage value of the LPS only control. […] Standard deviation values (s.d.) are given underneath each value of expressed IFN-γ levels.

Con A-stimulated cells = assay: Cell cytotoxicity compared to digitonin under Con A stimulation
Excerpt: Digitonin is a glycoside obtained from Digitalis purpurea, which acts as a detergent, and effectively water-solubilizes lipids in the plasma membrane. Therefore, digitonin can be used to permeabilise cell membranes. The inventors therefore investigated digitonin's cell membrane-permeabilising effects on Con A-stimulated cells to determine the cytotoxic effects of ritodrine or dobutamine.

IFN-γ = IFN-γ levels in PBMC under LPS stimulation (ELISA); format: cell-based, human; conditions: for Percentage IFN-γ levels compared to 100% untreated cells under LPS stimulation: PBMC; for concentration of IFN-γ in LPS stimulated cells: text summary of Table 1, concentration not stated
Experimental: as §1

[1] = system: Influenza A/PR/8/34 (H1N1 virus); assay: In vivo mouse influenza challenge, dobutamine and ritodrine intra-peritoneal; conditions: H1N1-infected mice; for Sum Total Morbidity: FIG. 3
Experimental: 5) In Vivo Mouse Studies Using Dobutamine
Protocol: Fifty (50) C57BL/6 female mice (6-7 weeks old), were divided into […] experimental groups containing ten (10) animals each. On day 1, animals received an intranasal lethal dose (50 μl total, 25 μl nostril) of Influenza A/PR/8/34 under halothane induced anesthesia. On Day 3, animals received one intra-peritoneal injection (100-150 μl) of the test compound. On Day 4 or 5, all animals still alive received a second intra-peritoneal injection (100-150 μl) of the test compound.
All animals were assessed daily for morbidity, weight loss and survival from Day 1 until at least Day 6. Morbidity variables (i.e. Body Condition, Posture, Activity, Piloerection, Respiration, Vocalisation, Ataxia and Oculo/Nasal Discharges) were recorded according to the following scale of severity: Normal (0), Mild (1), Laboured (2) and Severe/Cull-point (3).
Using standard techniques as described above, mice were infected with a H1N1 virus which was allowed to become established in each of the subjects. Each test mouse was then treated with dobutamine (BC1021) either with a single dose on day 3 after infection with the virus, or as two doses, one on day 3 and one on day 4 after infection. In the control mice, no dobutamine was administered. The weight loss of both treated and untreated mice was then determined.
The inventors also investigated the effects of dobutamine (single and double doses) as well as ritodrine (single and double doses) on the Sum Total Morbidity of the tested mice. Referring to FIG. 3, there are shown the data of these experiments. The value of Sum Total Morbidity corresponds to a confidence value of the general “wellness” of the mice, and takes into account the quality of the fur and grooming of the mice, and whether or not the mice are able to feed and walk. Measurement of Morbidity values will be known to the skilled technician.

[2] = two doses on days 3 and 4 (Groups C and E)

## CC(CCc1ccc(O)cc1)NCCc1ccc(O)c(O)c1 (centres unmarked) [BC1021, dobutamine]
TNF-α; + LPS, compound 1 μM, 24 h
  Percentage TNF-α levels compared to 100% untreated cells under LPS stimulation: 91.20%
TNF-α; + LPS, compound 10 μM, 24 h
  Percentage TNF-α levels compared to 100% untreated cells under LPS stimulation: 84.79%
TNF-α; + LPS, compound 100 μM, 24 h
  Percentage TNF-α levels compared to 100% untreated cells under LPS stimulation: 81.41%
TNF-α; compound only (no LPS), 1 μM
  Percentage TNF-α levels compared to 100% untreated cells under LPS stimulation: −80.18%
TNF-α; compound only (no LPS), 10 μM
  Percentage TNF-α levels compared to 100% untreated cells under LPS stimulation: −145.07%
TNF-α; compound only (no LPS), 100 μM
  Percentage TNF-α levels compared to 100% untreated cells under LPS stimulation: −151.15%
TNF-α
  concentration of TNF-α in LPS stimulated cells: decreased
Con A-stimulated cells; compound only (no Con A), 1 μM
  Percentage cytotoxicity compared to 100% for digitonin under Con A stimulation: 47.71%
Con A-stimulated cells; compound only (no Con A), 10 μM
  Percentage cytotoxicity compared to 100% for digitonin under Con A stimulation: 42.94%
Con A-stimulated cells; compound only (no Con A), 100 μM
  Percentage cytotoxicity compared to 100% for digitonin under Con A stimulation: 32.33%
Con A-stimulated cells; text summary of Table 6, vast majority of cases
  cytotoxicity rates in treated samples: lower
IFN-γ; + LPS, compound 1 μM, 24 h
  Percentage IFN-γ levels compared to 100% untreated cells under LPS stimulation: 82.88%
IFN-γ; + LPS, compound 10 μM, 24 h
  Percentage IFN-γ levels compared to 100% untreated cells under LPS stimulation: 29.84%
IFN-γ; + LPS, compound 100 μM, 24 h
  Percentage IFN-γ levels compared to 100% untreated cells under LPS stimulation: 37.22%
IFN-γ; compound only (no LPS), 1 μM
  Percentage IFN-γ levels compared to 100% untreated cells under LPS stimulation: 1.21%
IFN-γ; compound only (no LPS), 10 μM
  Percentage IFN-γ levels compared to 100% untreated cells under LPS stimulation: −0.33%
IFN-γ; compound only (no LPS), 100 μM
  Percentage IFN-γ levels compared to 100% untreated cells under LPS stimulation: −0.99%
IFN-γ
  concentration of IFN-γ in LPS stimulated cells: decreased
[1]; all doses, single or double
  Sum Total Morbidity: improvement of the morbidity value
[1]; single dose on day 3, FIG. 1
  effect on weight loss: little effect
[1]; single dose on day 3, FIG. 2
  percentage survival of mice: little effect
[1]; [2]
  Sum Total Morbidity: the most improvements; also recorded: the most effective
[1]; two doses on days 3 and 4 after infection, FIG. 1
  lower reduction in weight loss than the control mice: ≥ 10%
[1]; two doses, day 3 and day 4, FIG. 2
  percentage survival of mice: higher survival rate than the control

## CC(NCCc1ccc(O)cc1)C(O)c1ccc(O)cc1 (centres unmarked) [BC1023, ritodrine]
TNF-α; + LPS, compound 1 μM, 24 h
  Percentage TNF-α levels compared to 100% untreated cells under LPS stimulation: 62.12%
TNF-α; + LPS, compound 10 μM, 24 h
  Percentage TNF-α levels compared to 100% untreated cells under LPS stimulation: 85.01%
TNF-α; + LPS, compound 100 μM, 24 h
  Percentage TNF-α levels compared to 100% untreated cells under LPS stimulation: 85.74%
TNF-α; compound only (no LPS), 1 μM
  Percentage TNF-α levels compared to 100% untreated cells under LPS stimulation: −29.75%
TNF-α; compound only (no LPS), 10 μM
  Percentage TNF-α levels compared to 100% untreated cells under LPS stimulation: 0.74%
TNF-α; compound only (no LPS), 100 μM
  Percentage TNF-α levels compared to 100% untreated cells under LPS stimulation: −56.57%
TNF-α
  concentration of TNF-α in LPS stimulated cells: decreased
Con A-stimulated cells
  cytotoxicity rates in treated samples: lower
Con A-stimulated cells; human, 1 μM
  Percentage cytotoxicity compared to 100% for digitonin under Con A stimulation: 44.54%
Con A-stimulated cells; human, 10 μM
  Percentage cytotoxicity compared to 100% for digitonin under Con A stimulation: 43.63%
Con A-stimulated cells; human, 100 μM
  Percentage cytotoxicity compared to 100% for digitonin under Con A stimulation: 43.81%
IFN-γ; + LPS, compound 1 μM, 24 h
  Percentage IFN-γ levels compared to 100% untreated cells under LPS stimulation: 44.79%
IFN-γ; + LPS, compound 10 μM, 24 h
  Percentage IFN-γ levels compared to 100% untreated cells under LPS stimulation: 51.41%
IFN-γ; + LPS, compound 100 μM, 24 h
  Percentage IFN-γ levels compared to 100% untreated cells under LPS stimulation: 38.74%
IFN-γ; compound only (no LPS), 1 μM
  Percentage IFN-γ levels compared to 100% untreated cells under LPS stimulation: 1.04%
IFN-γ; compound only (no LPS), 10 μM
  Percentage IFN-γ levels compared to 100% untreated cells under LPS stimulation: 2.73%
IFN-γ; compound only (no LPS), 100 μM
  Percentage IFN-γ levels compared to 100% untreated cells under LPS stimulation: 5.46%
IFN-γ
  concentration of IFN-γ in LPS stimulated cells: decreased
[1]; all doses, single or double
  Sum Total Morbidity: improvement of the morbidity value
[1]; [2]
  Sum Total Morbidity: the most improvements
